Source: patent US20210161189A1, “MONOESTER SUGAR DERIVATIVES AS FLAVOR MODIFIERS” (Firmenich SA, priority 2018, published 2021)

Experiments:
β-Lactoglobulin layer = target: T1, β-Lactoglobulin layer (Bos taurus, UniProt P02754); experiment: QCM-D mass adsorption of BWAT Raspberry water films on a protein layer; assay type: physicochemical; conditions: for mass/area: mass absorption on protein layer
T1 sequence (P02754 17-178): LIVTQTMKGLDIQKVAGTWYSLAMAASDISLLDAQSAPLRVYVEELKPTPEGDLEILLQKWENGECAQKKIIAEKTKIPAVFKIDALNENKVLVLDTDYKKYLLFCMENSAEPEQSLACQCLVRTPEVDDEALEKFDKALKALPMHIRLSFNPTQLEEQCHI
Source text: Quartz Crystal Microbalance with Dissipation monitoring (QCM-D) is a real-time, nanoscale technique for monitoring and characterizing thin films on surfaces as well for analyzing surface phenomena including thin film formation, adsorption, desorption, molecular interactions, reactions and structural properties. In this way, the QCM operates as a very sensitive balance.
A QCM sensor consists of a thin quartz disc sandwiched between a pair of electrodes. Due to the piezoelectric properties of quartz, it is possible to excite the crystal to oscillation by applying an AC voltage across its electrodes. Normally the electrodes are made of gold, which can be coated with a wide range of different materials. The resonance frequency (f) of the sensor depends on the total oscillating mass, including water coupled to the oscillation. When a thin film is attached to the sensor, the frequency decreases. If the film is thin and rigid the decrease in frequency is proportional to the mass of the film. Frequency monitoring gives information about mass changes and thickness of adsorbed film. Adsorbed films dampen the sensor's oscillation. […] Therefore dissipation is related to the rigidity of the adsorbed film.
This technique was used to analyse the properties of adsorbed BWAT Raspberry water films on a β-Lactoglobulin layer in order to compare the obtained physico-chemical data to the sensory data mentioned beforehand. β-Lactoglobulin was used in order to mimic the protein layer in the oral cavity.
The measurements were done as duplicates. First a protein layer was adsorbed on the quartz crystal. As soon as equilibrium is obtained, the excessive protein layer was rinsed with Millipore water in order to create a homogenous protein monolayer. Ensuing, the Raspberry water was left to rinse over the protein layer—frequency changes and energy dissipation were monitored during a time lapse of 10 min. A last rinsing step with Millipore was conducted.
To understand the role of glucose-6-O-octanoate (G60) as astringency/bitterness modulator the following solutions were investigated on their adsorption behavior.

sensory panel [1] = experiment: Sensory panel, coffee composition (Emmi Noir coffee, containing milk); assay type: in vivo, human; conditions: 200 ppm in coffee containing milk; panel score
Method: (§1) Next, glucose-6-O-octanoate was added to a coffee composition (Emmi Noir coffee, containing milk), to result in a final concentration of 200 ppm in the test composition. In parallel, a control composition, comprising Emmi Noir coffee, containing milk was also generated. A sensory panel consisting of between 6 to 8 persons compared the overall flavor, sweetness, acidity, bitterness, astringency, off-notes, and long-lastingness of the sweetness of the test composition and the control composition. The results were analyzed using the Duncan comparison test.

sensory panel [2] = experiment: Sensory panel, pomegranate juice; assay type: in vivo, human; conditions: 100 ppm in pomegranate juice; panel score
Method: as §1, with “pomegranate juice composition,” for “coffee composition (Emmi Noir coffee, containing milk),”, “100” for “200”, “pomegranate juice” for “Emmi Noir coffee, containing milk”

sensory panel [3] = experiment: Sensory panel, dairy test composition (milk sweetened with 3% w/v sucrose); assay type: in vivo, human; conditions: 100 ppm in milk sweetened with 3% sucrose; panel score
Method: Glucose-6-O-octanoate, manufactured according to the methods described in Example 1 above was added to a dairy test composition (milk sweetened with 3% w/v sucrose), to result in a final concentration of 100 ppm in the test composition. In parallel, a control composition, comprising milk sweetened with 3% w/v sucrose was also generated. A sensory panel consisting of between 6 to 8 persons compared the overall flavor, sweetness, acidity, bitterness, astringency, off-notes, and long-lastingness of the sweetness of the dairy test composition containing 100 ppm glucose-6-O-octanoate and the control composition. The results were analyzed using the Duncan comparison test.

## CCCCCCCC(=O)OC[C@@H](O)[C@@H](O)[C@H](O)[C@@H](O)C=O [glucose-6-O-octanoate]
β-Lactoglobulin layer; BWAT raspberry water in presence of G60
  Mass adsorption versus control sample: higher mass adsorption compared to the control sample
β-Lactoglobulin layer; BWAT w/ 200 ppm G60
  mass/area: 1257 ng/cm^2
β-Lactoglobulin layer; BWAT w/ 1000 ppm G60
  mass/area: 1194 ng/cm^2
β-Lactoglobulin layer; over the 10 min of mass adsorption monitoring, dependence on G60 concentration
  Amount of rinsed away mass: The higher the G60 concentration the lower is the amount of rinsed away mass
Sensory panel [1]
  Acidity: 0.17
  Bitterness: 1.92
  Long-lasting (sweet): 1.83
  Off-notes: 0.33
  Overall Flavor: 3.17
Sensory panel [2]
  Long-Lasting: 1.75
  Off-notes: 0.62
  Overall Flavor: 3.38
Sensory panel [3]
  Acidity: 0
  Astringency: 0.6
  Bitterness: 0.8
  Long-Lasting: 1.4
  Overall Flavor: 1.8
